Experimental data as given in patent publication US10253069B2, “Compositions and methods for regulating arterial tone” (University of Virginia Patent Foundation, priority 2012, dated 2019).

Key:
[1] = system: thoracodorsal (TD) arteries; assay: Vasoreactivity of cannulated, pressurized TD arteries (pressure myograph) after siRNA transfection or PTU/L-NAME treatment; set-up: species or system mouse; conditions: for Contraction to 5-HT 50 nM post 15 min, % initial diameter: 15 minutes after stimulation, PTU 50 μM, n = 3; for PE CCRC Emax (% initial diameter): phenylephrine, TD arteries pretreated with PTU (50 μM) and/or L-NAME (100 μM)
Protocol: TD arteries (maximal internal diameter 261.7±4.2 μm) were isolated, cannulated in a pressure myograph (Danish MyoTechnology) and secured with 10.0 nylon sutures as described in^7. The TD arteries were placed in a circulating bath of Krebs-HEPES and perfused with Krebs-HEPES supplemented with 1% BSA. Arteries were maintained in a no flow state and pressurized at 80 mmHg as previously described^1. […] Acetylcholine (1 μM) was added to the bath to verify the integrity of the endothelium. […] At the end of the experiments, the solution was replaced by a calcium-free Krebs supplemented with 2 mM ethylenbis-(oxyethylenenitrolo) tetra-acetic acid (EGTA) and 10 μM sodium nitroprussiate in order to measure the maximal diameter. […] Internal diameters were calculated and results are expressed as a percentage of initial inner diameter (for PE dose responses) or percent dilation (for Ach dose responses). […] The TD arteries were isolated and cannulated as described above. The vessel lumen was perfused with Krebs-HEPES buffer supplemented with 1% BSA to flush out red blood cells and 100 μL of Nucleofector transfection reagent (HCAEC Nucleofector kit, Lonza) containing 10 nM control, Hb α or CytB5R3 siRNAs (see Table below) was perfused into the lumen. Arteries were then removed from the cannula and the ends ligated with 10-0 nylon sutures to maintain the transfection reagent and siRNA in the blood vessel lumen. Ligated arteries were then transferred to a transfection cuvette (Lonza) containing 100 μL Nucleofector transfection reagent and electroporated using the Nucleofector II Device (Lonza) using setting A-034. Transfected TDA were removed from cuvettes, re-cannulated and perfused with RPMI media+1% BSA to remove residual transfection reagent and siRNA. Arteries were cultured for 15-18 hours at 37° C. in RPMI+1% BSA and used for vasoreactivity studies or processed for immunofluorescence microscopy. To eliminate variability of transfection efficiency and vessel viability, one control siRNA vessel and one Hb α/CytBSR3 vessel were transfected daily.

TD arteries = assay: Nitric oxide diffusion assay, ex vivo TD arteries; set-up: species or system mouse; conditions: isolated TD arteries
Protocol: (§1) Anaerobic aqueous NO was generated by bubbling 100% helium into a beaker containing deionized water. Following 30 minutes, 99.5% NO′ gas was bubbled for an additional 40 minutes giving a final saturated concentration of approximately 1.7 mM.
(§2) Both ECs and SMCs were cultured on 12 mm Transwells as described above. After three days of co-culture, media was removed and replaced with 500 μL of Krebs buffer on each side of the Transwells and cells were allowed to equilibrate for 15 minutes. Next, 100 μL of anaerobic aqueous NO was added to the 500 μLs of Kreb's buffer on the EC side of the Transwell. After 5 minutes, 100 μL of Krebs buffer was immediately removed and injected into a Seivers Nitric Oxide Analyzer (NOA). Data was quantified using Origin Pro 6.0 by calculating the area under the peak over time. Differences between samples were expressed as μM change. For experiments on ex vivo samples, TD arteries were cannulated (as described above) in puddle of 100 μL of Krebs buffer created by parafilm. […] Data was quantified using Origin Pro 6.0 by calculating the area under the peak over time. Differences between samples were expressed as μM change.

[2] = system: VCCC (human coronary ECs and SMCs); assay: Nitric oxide diffusion assay, VCCC; type: cell-based
Protocol: as §1, §2

[3] = system: human coronary endothelial cells; assay: Nitrite measurements from media of coronary endothelial cells; type: cell-based; conditions: unstimulated cells
Protocol: (§3) Primary coronary endothelial cells (Lonza) were cultured on plastic 6-well dishes as previously described^9. For studies involving basal NO release, endothelial cells were incubated with 5 μmol/L of Scr X or Hb α X for 20 minutes followed by medium collection and nitrite measurements as described below. For bradykinin studies, coronary endothelial cells were grown to confluence followed by serum starvation overnight in a cocktail of Lonza EGM-2 medium supplemented with EGM-2 bullet kit and Opti MEM reduced growth medium using a ratio of 1:9 respectively. The next day, endothelial cells were incubated with Scr X or Hb α X peptide for 20 minutes followed by the addition of 10 μM bradykinin (Sigma) for 5 minutes followed by medium collection for nitrite measurements as described below.
Quantitation of nitrite in culture medium was measured by chemiluminescence using a Sievers nitric oxide analyzer according to manufacturer's instructions. Quantitation of peaks was analyzed using Origin Pro 6.0 as previously described^9.

[4] = system: eNOS phosphorylation on serine 1177; assay: Western blot of pS1177 eNOS in coronary endothelial cells; type: cell-based, human; conditions: 5 μmol/L peptide, 20 minutes
Protocol: as §3
Endothelial cells were harvested in lysis buffer, sonicated and subjected to electrophoresis using 10% Bis-Tris gels (Invitrogen) as previously described^13. Proteins were transferred to nitrocellulose, incubated with phospho-eNOS S1177 (BD Biosciences) or total eNOS (Sigma) and visualized and quantitated using Li-Cor Odyssey Imager as previously described^14.

thoracodorsal arteries = assay: Pressure myography on thoracodorsal arteries, phenylephrine dose response with peptides; set-up: species or system mouse

Molecule	Contraction to 5-HT 50 nM post 15 min, % initial diameter ([1]; TD arteries) [n.s. % initial diameter]	PE CCRC Emax (% initial diameter) [1] [% initial diameter]	NO diffusion across the vessel wall (TD arteries)	NO diffusion in the VCCC [2]	other results
COC(=O)[C@@H](N)CCCNC(=N)N[N+](=O)[O-] [L-NAME, L-N^G-nitroarginine methyl ester]	57.0 ± 3.29	62.6 ± 6.1			
CCCc1cc(=O)[nH]c(=S)[nH]1 [PTU, propylthiouracil]	64.1 ± 4.5	91.4 ± 2.5	increased NO diffusion	increased NO diffusion	Reversibility of the PTU effect with L-thyroxine supplementation ([1]; L-thyroxin 50 μM + PTU, 10 μM PE stimulation): not reversible; Basal tone ([1]; TD arteries): No difference in basal tone; Ach CCRC Emax (% Dilation) ([1]; acetylcholine, TD arteries pretreated with PTU): 94.9 ± 1.7 % Dilation; PE and Ach responses with the addition of L-NAME ([1]; plus NOS inhibitor L-NAME, TD arteries): comparable to control conditions
[C-]#[O+] [carbon monoxide]			increased NO diffusion	increase in NO diffusion	
Scrambled control peptide FPYFSTKLTT (SEQ ID NO:40) with HIV-tat tag YGRKKRRQRRR at the N-terminus [Scr X]					Accumulation of nitrite in the culture medium, basal [3]: no differences; Basal eNOS phosphorylation on serine 1177 [4]: no differences; Constriction in phenylephrine dose response curves (thoracodorsal arteries; compared to untreated arteries): no difference from control; Emax, vascular reactivity dose response curves (thoracodorsal arteries; phenylephrine dose response, thoracodorsal arteries perfused with peptide): 38.3 ± 2.4 % initial diameter
